Source: ChEMBL document CHEMBL1153985, “In vitro and in vivo SAR of pyrido[3,4-d]pyramid-4-ylamine based mGluR1 antagonists” (Bioorg Med Chem Lett, 2009)
Activity calls are given as the source filed them.

Columns and labels:
[1] = target: Metabotropic glutamate receptor 1 (Rattus norvegicus, UniProt P23385); assay: Antagonist activity at rat mGluR1a expressed in CHO cells assessed as inhibition of glutamate-evoked increase in calcium […] preincubated 5 mins before glutamate challenge; assay type: functional, cell-based
Liver microsomes [2] = assay: Metabolic stability in human liver microsomes assessed as intrinsic clearance; assay type: ADME, Microsome
[3] = Ratio of free drug level in cerebrospinal fluid to steady state unbound plasma in iv dosed rat; assay type: ADME, organism-based
[4] = Lipophilicity, log D of the compound; assay type: physicochemical; details: octanol/water
Rattus norvegicus [5] = assay: Antinociceptive activity in anaesthetized rat assessed as maximal inhibition of noxious pinch-induced electromyograph response at 8 to 16 fold free Ki concentration in cerebrospinal fluid measured after 1 hr; assay type: functional, organism-based
[6] = target: Metabotropic glutamate receptor 1 (Homo sapiens, UniProt Q13255); assay: Antagonist activity at mGluR1; assay type: functional
[7] = Half life in rat at 1 mg/kg; assay type: ADME, organism-based; parameters: dose 1 mg/kg; details: in vivo
[8] = Clearance in rat at 1 mg/kg; assay type: ADME, organism-based; parameters: dose 1 mg/kg; details: in vivo
[9] = Volume of distribution in rat at 1 mg/kg; assay type: ADME, organism-based; parameters: dose 1 mg/kg; details: in vivo
[10] = Oral bioavailability in rat at 1 mg/kg; assay type: ADME, organism-based; details: in vivo
[11] = Protein binding in rat plasma at 1 mg/kg; assay type: ADME, organism-based; parameters: dose 1 mg/kg; details: read-out: PPB (converted)
Liver microsomes [12] = assay: Metabolic stability in rat liver microsomes assessed as intrinsic clearance; assay type: ADME, Microsome
[13] = target: Metabotropic glutamate receptor 5 (Homo sapiens, UniProt P41594); assay: Antagonist activity at mGluR5; assay type: functional
Rattus norvegicus [14] = assay: Antinociceptive activity in anaesthetized rat assessed as inhibition of noxious pinch-induced electromyograph response at 22 mg/kg, iv administered as bolus dose for 30 seconds and 9.6 mg/kg/hr, iv administered via infusion measured after 1 hr; assay type: functional, organism-based
Rattus norvegicus [15] = assay: Antinociceptive activity in anaesthetized rat assessed as inhibition of low threshold tactile stimulus-induced electromyograph response at 22 mg/kg, iv administered as bolus dose for 30 seconds and 9.6 mg/kg/hr, iv administered via infusion measured after 1 hr; assay type: functional, organism-based
Rattus norvegicus [16] = assay: Antinociceptive activity in anaesthetized rat assessed as maximal inhibition of noxious pinch-induced electromyograph response at 10 fold free Ki concentration in cerebrospinal fluid measured after 1 hr; assay type: functional, organism-based
Rattus norvegicus [17] = assay: Free plasma concentration in anaesthetized electromyograph pinch rat model at 22 mg/kg, iv administered as bolus dose for 30 seconds and 9.6 mg/kg/hr, iv administered via infusion; assay type: ADME, organism-based; details: in vivo
Rattus norvegicus [18] = assay: Toxicity in anaesthetized electromyograph pinch rat model assessed as effect on sensory input to spinal cord at 22 mg/kg, iv administered as bolus dose for 30 seconds and 9.6 mg/kg/hr, iv administered via infusion; assay type: organism-based; details: in vivo
[19] = Solubility of the compound; assay type: physicochemical
Rattus norvegicus [20] = assay: Analgesic activity in awake rat at 0.3 mg/kg, iv administered as bolus dose for 30 seconds and 0.3 mg/kg/hr, iv administered via infusion measured after 1 hr; assay type: functional, organism-based
Rattus norvegicus [21] = assay: Antinociceptive activity in anaesthetized rat assessed as inhibition of noxious pinch-induced electromyograph response at 0.3 mg/kg, iv administered as bolus dose for 30 seconds and 0.3 mg/kg/hr, iv administered via infusion measured after 1 hr; assay type: functional

Sequence of Metabotropic glutamate receptor 1 (Rattus norvegicus, UniProt P23385) (P23385 whole entry): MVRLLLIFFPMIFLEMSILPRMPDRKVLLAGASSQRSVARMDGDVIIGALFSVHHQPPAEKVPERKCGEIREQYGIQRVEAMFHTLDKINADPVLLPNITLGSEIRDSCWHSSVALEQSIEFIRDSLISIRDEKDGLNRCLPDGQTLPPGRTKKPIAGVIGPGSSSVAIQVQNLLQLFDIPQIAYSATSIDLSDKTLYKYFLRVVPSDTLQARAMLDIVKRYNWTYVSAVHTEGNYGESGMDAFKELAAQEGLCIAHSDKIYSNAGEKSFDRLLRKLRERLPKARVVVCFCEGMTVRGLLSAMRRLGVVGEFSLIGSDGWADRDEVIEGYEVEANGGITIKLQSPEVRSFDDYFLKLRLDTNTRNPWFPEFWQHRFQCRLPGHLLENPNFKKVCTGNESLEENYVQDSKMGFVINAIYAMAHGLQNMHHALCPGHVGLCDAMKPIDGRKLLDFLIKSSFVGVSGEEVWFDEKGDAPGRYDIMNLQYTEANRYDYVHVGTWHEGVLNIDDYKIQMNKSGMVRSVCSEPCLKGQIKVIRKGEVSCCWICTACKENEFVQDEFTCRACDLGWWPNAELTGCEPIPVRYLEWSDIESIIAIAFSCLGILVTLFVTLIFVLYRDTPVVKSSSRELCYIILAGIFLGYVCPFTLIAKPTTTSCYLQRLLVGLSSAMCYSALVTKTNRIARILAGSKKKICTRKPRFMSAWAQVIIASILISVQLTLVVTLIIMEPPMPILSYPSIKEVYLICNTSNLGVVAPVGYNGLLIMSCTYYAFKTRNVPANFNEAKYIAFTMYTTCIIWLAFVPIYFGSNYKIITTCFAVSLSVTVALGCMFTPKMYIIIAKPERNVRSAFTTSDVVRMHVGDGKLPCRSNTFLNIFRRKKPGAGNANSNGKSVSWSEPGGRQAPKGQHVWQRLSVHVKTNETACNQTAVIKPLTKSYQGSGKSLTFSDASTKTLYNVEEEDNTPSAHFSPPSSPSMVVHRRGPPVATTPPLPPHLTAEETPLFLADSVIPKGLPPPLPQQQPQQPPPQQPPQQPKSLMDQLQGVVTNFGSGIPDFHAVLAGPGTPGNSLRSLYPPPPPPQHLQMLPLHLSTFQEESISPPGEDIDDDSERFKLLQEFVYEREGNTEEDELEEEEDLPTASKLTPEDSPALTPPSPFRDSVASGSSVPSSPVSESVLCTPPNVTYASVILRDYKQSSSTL
Sequence of Metabotropic glutamate receptor 1 (Homo sapiens, UniProt Q13255) (Q13255 whole entry): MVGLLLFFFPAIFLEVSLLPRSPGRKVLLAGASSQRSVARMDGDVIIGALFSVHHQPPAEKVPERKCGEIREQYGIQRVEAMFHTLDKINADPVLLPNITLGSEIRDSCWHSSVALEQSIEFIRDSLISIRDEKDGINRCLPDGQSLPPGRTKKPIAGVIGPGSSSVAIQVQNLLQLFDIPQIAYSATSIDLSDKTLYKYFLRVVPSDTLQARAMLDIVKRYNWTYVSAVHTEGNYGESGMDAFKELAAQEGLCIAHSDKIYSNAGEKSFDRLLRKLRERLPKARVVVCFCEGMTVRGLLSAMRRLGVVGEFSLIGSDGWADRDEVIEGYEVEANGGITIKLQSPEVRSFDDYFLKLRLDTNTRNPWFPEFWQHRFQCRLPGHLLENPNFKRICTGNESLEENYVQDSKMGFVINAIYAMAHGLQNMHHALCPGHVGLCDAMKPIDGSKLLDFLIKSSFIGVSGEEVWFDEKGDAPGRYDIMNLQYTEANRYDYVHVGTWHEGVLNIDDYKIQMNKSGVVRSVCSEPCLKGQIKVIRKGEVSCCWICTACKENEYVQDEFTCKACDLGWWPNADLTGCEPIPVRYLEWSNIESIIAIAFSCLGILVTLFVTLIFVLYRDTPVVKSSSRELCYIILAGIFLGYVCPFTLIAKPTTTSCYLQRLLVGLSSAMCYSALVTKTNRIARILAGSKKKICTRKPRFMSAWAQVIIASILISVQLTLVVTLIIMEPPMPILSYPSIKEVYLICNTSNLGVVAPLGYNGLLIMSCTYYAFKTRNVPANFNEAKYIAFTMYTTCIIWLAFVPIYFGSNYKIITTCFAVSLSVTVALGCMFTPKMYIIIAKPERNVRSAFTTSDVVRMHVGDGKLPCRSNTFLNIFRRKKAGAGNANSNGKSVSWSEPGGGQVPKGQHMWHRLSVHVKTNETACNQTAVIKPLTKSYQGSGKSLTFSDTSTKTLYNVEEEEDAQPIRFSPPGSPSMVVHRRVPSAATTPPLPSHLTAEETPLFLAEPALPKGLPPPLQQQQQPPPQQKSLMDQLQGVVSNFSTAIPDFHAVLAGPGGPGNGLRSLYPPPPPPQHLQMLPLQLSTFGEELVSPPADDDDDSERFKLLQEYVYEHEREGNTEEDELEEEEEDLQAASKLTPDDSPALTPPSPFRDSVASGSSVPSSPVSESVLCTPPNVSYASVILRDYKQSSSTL
Sequence of Metabotropic glutamate receptor 5 (P41594 whole entry, the tested form may be a part): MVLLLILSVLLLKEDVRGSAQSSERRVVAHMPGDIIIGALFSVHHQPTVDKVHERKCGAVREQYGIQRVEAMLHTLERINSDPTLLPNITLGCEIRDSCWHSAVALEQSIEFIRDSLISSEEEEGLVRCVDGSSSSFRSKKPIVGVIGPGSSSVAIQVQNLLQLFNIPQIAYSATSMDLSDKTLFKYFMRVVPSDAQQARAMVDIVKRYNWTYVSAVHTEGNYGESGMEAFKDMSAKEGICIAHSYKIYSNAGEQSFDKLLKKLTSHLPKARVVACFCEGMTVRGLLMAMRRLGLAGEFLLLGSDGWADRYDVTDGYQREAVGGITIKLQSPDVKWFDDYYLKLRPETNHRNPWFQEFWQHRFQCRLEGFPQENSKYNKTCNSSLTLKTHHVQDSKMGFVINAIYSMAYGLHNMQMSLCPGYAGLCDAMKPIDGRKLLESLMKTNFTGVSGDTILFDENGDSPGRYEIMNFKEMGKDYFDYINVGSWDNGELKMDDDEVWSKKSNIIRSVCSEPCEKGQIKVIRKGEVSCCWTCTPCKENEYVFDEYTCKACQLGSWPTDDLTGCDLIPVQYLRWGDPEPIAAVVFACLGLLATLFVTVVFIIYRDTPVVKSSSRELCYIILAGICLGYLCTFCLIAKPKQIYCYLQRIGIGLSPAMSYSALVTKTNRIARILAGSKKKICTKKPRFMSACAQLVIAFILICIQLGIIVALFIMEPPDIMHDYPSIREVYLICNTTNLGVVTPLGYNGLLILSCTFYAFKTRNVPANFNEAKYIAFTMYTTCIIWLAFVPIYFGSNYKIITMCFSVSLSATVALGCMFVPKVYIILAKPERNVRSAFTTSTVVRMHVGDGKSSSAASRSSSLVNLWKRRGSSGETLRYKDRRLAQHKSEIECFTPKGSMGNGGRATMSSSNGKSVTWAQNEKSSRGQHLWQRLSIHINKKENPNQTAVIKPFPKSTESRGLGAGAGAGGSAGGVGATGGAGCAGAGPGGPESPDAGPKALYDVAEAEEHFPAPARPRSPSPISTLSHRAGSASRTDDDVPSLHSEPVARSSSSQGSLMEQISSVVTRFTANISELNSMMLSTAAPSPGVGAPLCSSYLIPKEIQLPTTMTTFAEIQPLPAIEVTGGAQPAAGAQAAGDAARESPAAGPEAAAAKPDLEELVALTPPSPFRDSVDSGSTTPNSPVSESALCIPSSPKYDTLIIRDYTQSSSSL

Row | SMILES | Ki [1] [nM] | other results
1 | CN(C)c1cc2c(NC3Cc4ccccc4C3)ncnc2cn1 | 185 | –
2 | c1nc(NC2CCCCCC2)c2cc(OCCN3CCOCC3)ncc2n1 | 6 | clearance (Liver microsomes [2]): 24 µL/min/mg; Kp uu [3]: 0.5; logD [4]: 3.4; inhibition (Rattus norvegicus [5]): Active
3 | c1nc(NC2CCCCC2)c2cc(OCCN3CCOCC3)ncc2n1 | 42 | –
4 | OCCOCCNc1cc2c(NC3Cc4ccccc4C3)ncnc2cn1 | 3 | IC50 [6]: 3 nM; half-life [7]: 18 min; clearance [8]: 26 mL/min/kg; Vd [9]: 0.6 L/kg; bioavailability [10]: 33%; fraction unbound [11]: 0.19; clearance (Liver microsomes [2]): < 7 µL/min/mg; clearance (Liver microsomes [12]): 30 µL/min/mg; IC50 [13]: > 3000 nM; inhibition (Rattus norvegicus [14]): Active; inhibition (Rattus norvegicus [15]): inactive; inhibition (Rattus norvegicus [16]): Active; Cp (Rattus norvegicus [17]): > 1000 nM; Activity (Rattus norvegicus [18]): Non-toxic; solubility [19]: Insoluble; Kp uu [3]: 0.02; logD [4]: 3
5 | OCCNc1cc2c(NC3Cc4ccccc4C3)ncnc2cn1 | 21 | –
6 | COCCNc1cc2c(NC3Cc4ccccc4C3)ncnc2cn1 | 5 | –
7 | O=C1CCCN1CCOc1cc2c(NC3CCCCC3)ncnc2cn1 | 20 | –
8 | CNc1cc2c(N(C)C3Cc4ccccc4C3)ncnc2cn1 | 54 | –
9 | c1ccc2c(OC3CCCCC3)ncnc2c1 | 694 | –
10 | OCCCOc1cc2c(NC3CCCCC3)ncnc2cn1 | 33 | –
11 | CN(C)c1cc2c(N(C)C3Cc4ccccc4C3)ncnc2cn1 | 300 | –
12 | NCCCNc1cc2c(NC3CCCCC3)ncnc2cn1 | 200 | –
13 | CN1CC[C@]23c4c5ccc(O)c4O[C@H]2[C@@H](O)C=C[C@H]3[C@H]1C5 [MORPHINE] | – | Activity (Rattus norvegicus [20]): Active; inhibition in vivo at 0.3 mg/kg (Rattus norvegicus [21]): 40%
14 | OCCNc1ncnc2cnc(NC3Cc4ccccc4C3)cc12 | 125 | –
15 | COc1cc2c(NC3Cc4ccccc4C3)ncnc2cn1 | 115 | –
16 | c1ccc2c(c1)CC(Nc1cc3c(NC4Cc5ccccc5C4)ncnc3cn1)C2 | 31 | –
17 | OCCNc1cc2c(NCCO)ncnc2cn1 | 6150 | –

Row | SMILES | Ki [1] [nM] | other results
18 | COCCOc1cc2c(NC3CCCCC3)ncnc2cn1 | 101 | –
19 | CNc1ncnc2cnc(NC3Cc4ccccc4C3)cc12 | 160 | –
20 | OCCOc1cc2c(NC3CCCCC3)ncnc2cn1 | 177 | –
21 | CNc1cc2c(NC3Cc4ccccc4C3)ncnc2cn1 | 14 | Kp uu [3]: 0.06; logD [4]: 2.9
22 | CN(C)c1cc2c(NC3CCCCC3)ncnc2cn1 | 199 | –
23 | CCCC(C)Nc1ncnc2cnc(N(C)C)cc12 (centres undefined) | 858 | –
24 | COCCNc1cc2c(NC3CCCCC3)ncnc2cn1 | 11 | –
25 | c1ccc2c(NC3CCCCC3)ncnc2c1 | 27 | –
26 | NCCNc1cc2c(NC3CCCCC3)ncnc2cn1 | 2200 | –
27 | c1ccc2c(c1)CC(Nc1ncnc3ccccc13)C2 | 34 | –
28 | c1ccc2c(NC3CCCCC3)ccnc2c1 | 6160 | –
29 | Nc1cc2c(Nc3ccc(F)c(Cl)c3)ncnc2cn1 | – | IC50 [6]: 300 nM
30 | CN(C)CCNc1cc2c(NC3Cc4ccccc4C3)ncnc2cn1 | 102 | –
31 | c1nc(NC2CCCCC2)c2cc(NCCN3CCOCC3)ncc2n1 | 10 | Kp uu [3]: 0.07; logD [4]: 2.8
32 | C[C@H](Nc1ncnc2cnc(N(C)C)cc12)c1ccccc1 | 1400 | –
33 | c1ccc2c(c1)CC(Nc1nccc3ccccc13)C2 | 1650 | –
